For orientation: IC50 means the concentration needed to halve the response being measured.

The test system of this experiment is HBsAg secretion in HepG2.2.15 cells. Description: HBsAg assay (chemiluminescence immunoassay of secreted HBsAg in culture supernatant). The class given is cell-based, HBV. The following applies: concentration at which HBsAg secretion was reduced by 50% compared to the no drug control, read-out: IC50 (HBsAg assay). Summed up:
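IC50 taken from dose-response curves as the concentration halving secreted HBsAg relative to DMSO control. Measured by chemiluminescence immunoassay of culture supernatant from constitutively HBV-expressing HepG2.2.15 cells, seeded at 1.5×10^4/well in duplicate and exposed to three-fold serial compound dilutions at 1% final DMSO.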

Setting [1] is: Hepatitis B virus, HepG2.2.15, HepG2.2.15 cells.

Like-named read-outs stand apart in the source and are kept apart here.

Turning to `CC1c2cnc(-c3ccccn3)nc2CCN1c1cc(F)c(F)c(OCC(=O)N(C)C)c1` (stereo not shown) [Example 30, 2-[2,3-difluoro-5-[5-methyl-2-(2-pyridyl)-7,8-dihydro-5H-pyrido[4,3-d]pyrimidin-6-yl]phenoxy]-N,N-dimethyl-acetamide], the IC50 under setting [1] is 96 nM. Regarding `CC1c2cnc(-c3ncccn3)nc2CCN1c1cc(OCC2CC2)cc(F)n1` (stereo not shown) [Example 152, 6-[4-(cyclopropylmethoxy)-6-fluoro-2-pyridyl]-5-methyl-2-pyrimidin-2-yl-7,8-dihydro-5H-pyrido[4,3-d]pyrimidine], the 50% inhibitory concentration (IC50) under setting [1] stood at 11 nM. With `CC1c2cnc(-c3ncccn3)nc2CCN1c1cc(F)c(F)c(OCC(=O)O)c1` (stereo not shown) [Example 65, 2-[2,3-difluoro-5-(5-methyl-2-pyrimidin-2-yl-7,8-dihydro-5H-pyrido[4,3-d]pyrimidin-6-yl)phenoxy]acetic acid], the IC50 under setting [1] turned out to be 16700 nM. Consider `CC1c2cnc(-c3ncccn3)nc2CCN1c1cc(F)c(F)c(OCCCS(=O)(=O)O)c1` (stereo not shown) [Example 78, 3-[2,3-difluoro-5-(5-methyl-2-pyrimidin-2-yl-7,8-dihydro-5H-pyrido[4,3-d]pyrimidin-6-yl)phenoxy]propane-1-sulfonic acid], for which, under setting [1], the IC50 was found to be 976 nM.

Regarding `CC1c2cnc(-c3ncccn3)nc2CCN1c1cc(OCCCC(N)=O)cc(F)n1` (single isomer, unassigned; (-)) [Example 185, (−)-4-[[2-fluoro-6-[5-methyl-2-pyrimidin-2-yl-7,8-dihydro-5H-pyrido[4,3-d]pyrimidin-6-yl]-4-pyridyl]oxy]butanamide], the concentration for half-maximal inhibition (IC50) under setting [1] came to 14 nM. The same measure, in the same setting: the value for `CC1c2cnc(-c3ncccn3)nc2CCN1c1cc(F)cc(OCC(F)(F)F)c1` (stereo not shown) [Example 144, 6-[3-fluoro-5-(2,2,2-trifluoroethoxy)phenyl]-5-methyl-2-pyrimidin-2-yl-7,8-dihydro-5H-pyrido[4,3-d]pyrimidine] was 48 nM; that for `CC1c2cnc(-c3ncccn3)nc2CCN1c1cc(F)nc(OCC(F)F)c1` (stereo not shown) [Example 150, 6-[2-(2,2-difluoroethoxy)-6-fluoro-4-pyridyl]-5-methyl-2-pyrimidin-2-yl-7,8-dihydro-5H-pyrido[4,3-d]pyrimidine] was 49 nM. In the case of `CC1c2cnc(-c3ncccn3)nc2CCN1c1cc(O)c(F)c(F)c1` (stereo not shown) [Example 44, 2,3-difluoro-5-(5-methyl-2-pyrimidin-2-yl-7,8-dihydro-5H-pyrido[4,3-d]pyrimidin-6-yl)phenol], the IC50 (HepG2.2.15 cells) turned out to be 494 nM. Consider `CC1c2cnc(-c3ncccn3)nc2CCN1c1cc(F)cc(OCC(F)F)n1` (stereo not shown) [Example 148, 6-[6-(2,2-difluoroethoxy)-4-fluoro-2-pyridyl]-5-methyl-2-pyrimidin-2-yl-7,8-dihydro-5H-pyrido[4,3-d]pyrimidine], for which the IC50 under setting [1] amounted to 17 nM.

On to `CC1c2cnc(-c3ncccn3)nc2CCN1c1cc(F)c(F)c(OCC2(CO)CC2)c1` (stereo not shown) [Example 77, [1-[[2,3-difluoro-5-(5-methyl-2-pyrimidin-2-yl-7,8-dihydro-5H-pyrido[4,3-d]pyrimidin-6-yl)phenoxy]methyl]cyclopropyl]methanol], for which the IC50 under setting [1] came to 105 nM. On the same count and under the same terms, the figure for `COc1cc(N2CCc3nc(-c4ccccn4)ncc3C2CC(=O)O)cc(F)c1F` (stereo not shown) [Example 37, 2-[6-(3,4-difluoro-5-methoxy-phenyl)-2-(2-pyridyl)-7,8-dihydro-5H-pyrido[4,3-d]pyrimidin-5-yl]acetic acid] is 4860 nM. The same measure, in the same setting: the value for `CC1c2cnc(-c3ccccn3)nc2CCN1c1cc(OCCCCCCC(=O)O)cc(F)n1` (stereo not shown) [Example 179, 7-[[2-fluoro-6-[5-methyl-2-(2-pyridyl)-7,8-dihydro-5H-pyrido[4,3-d]pyrimidin-6-yl]-4-pyridyl]oxy]heptanoic acid] was 29 nM; that for `CC1c2cnc(-c3ccccn3)nc2CCN1c1cc(F)c(F)c(OCCCCCO)c1` (stereo not shown) [Example 25, 5-[2,3-difluoro-5-[5-methyl-2-(2-pyridyl)-7,8-dihydro-5H-pyrido[4,3-d]pyrimidin-6-yl]phenoxy]pentan-1-ol] was 33 nM. Consider `CC1c2cnc(-c3ncccn3)nc2CCN1c1cc(F)c(F)c(OCCCN2CCN(C(=O)OC(C)(C)C)CC2)c1` (stereo not shown) [Example 108, tert-butyl 4-[3-[2,3-difluoro-5-(5-methyl-2-pyrimidin-2-yl-7,8-dihydro-5H-pyrido[4,3-d]pyrimidin-6-yl)phenoxy]propyl]piperazine-1-carboxylate], for which the half-maximal inhibitory concentration (IC50) under setting [1] was 84 nM. Still for that read-out and setting: the value for `CC1c2cnc(-c3ncccn3)nc2CCN1c1cc(F)c(F)c(OCCCCCCCCN)c1` (stereo not shown) [Example 55, 8-[2,3-difluoro-5-(5-methyl-2-pyrimidin-2-yl-7,8-dihydro-5H-pyrido[4,3-d]pyrimidin-6-yl)phenoxy]octan-1-amine] was 113 nM; that for `CC1c2cnc(-c3ncccn3)nc2CCN1c1cc(F)cc(C(=O)O)c1` (stereo not shown) [Example 176, 3-fluoro-5-(5-methyl-2-pyrimidin-2-yl-7,8-dihydro-5H-pyrido[4,3-d]pyrimidin-6-yl)benzoic acid] was 27800 nM. With `CC1c2cnc(-c3ncccn3)nc2CCN1c1cc(F)c(F)c(OCC2CCCO2)c1` (stereo not shown) [Example 122, 6-[3,4-difluoro-5-(tetrahydrofuran-2-ylmethoxy)phenyl]-(5R/S)-methyl-2-pyrimidin-2-yl-7,8-dihydro-5H-pyrido[4,3-d]pyrimidine], the IC50 (HepG2.2.15 cells) was 16 nM.

`CC1c2cnc(-c3ccccn3)nc2CCN1c1cc(OCC2CC2)cc(F)n1` (stereo not shown) [Example 191, 6-[4-(cyclopropylmethoxy)-6-fluoro-2-pyridyl]-5-methyl-2-(2-pyridyl)-7,8-dihydro-5H-pyrido[4,3-d]pyrimidine]: the IC50 under setting [1] came to 35 nM.

In the case of `CC1c2cnc(-c3ncccn3)nc2CCN1c1cc(F)c(F)c(OCCCN2CCNC2=O)c1` (stereo not shown) [Example 113, 1-[3-[2,3-difluoro-5-(5-methyl-2-pyrimidin-2-yl-7,8-dihydro-5H-pyrido[4,3-d]pyrimidin-6-yl)phenoxy]propyl]imidazolidin-2-one], the IC50 under setting [1] stood at 94 nM. Still for that read-out and setting: the value for `CC1c2cnc(-c3ncccn3)nc2CCN1c1cc(F)cc(OCC2CC2)c1` (stereo not shown) [Example 145, 6-[3-(cyclopropylmethoxy)-5-fluoro-phenyl]-5-methyl-2-pyrimidin-2-yl-7,8-dihydro-5H-pyrido[4,3-d]pyrimidine] was 14 nM; that for `CC1c2cnc(-c3ncccn3)nc2CCN1c1cc(F)c(F)c(OCCC2CCOC2)c1` (stereo not shown) [Example 114, 6-[3,4-difluoro-5-(2-tetrahydrofuran-3-ylethoxy)phenyl]-5-methyl-2-pyrimidin-2-yl-7,8-dihydro-5H-pyrido[4,3-d]pyrimidine] was 18 nM. Consider `CC1c2cnc(-c3ccccn3)nc2CCN1c1cc(OCC2CCOCC2)cc(F)n1` (stereo not shown) [Example 190, 6-[6-fluoro-4-(tetrahydropyran-4-ylmethoxy)-2-pyridyl]-5-methyl-2-(2-pyridyl)-7,8-dihydro-5H-pyrido[4,3-d]pyrimidine], for which the IC50 under setting [1] was found to be 24 nM. Consider `CC1c2cnc(-c3ncccn3)nc2CCN1c1cc(N2CCOCC2)cc(F)n1` (stereo not shown) [Example 202, 4-[2-fluoro-6-(5-methyl-2-pyrimidin-2-yl-7,8-dihydro-5H-pyrido[4,3-d]pyrimidin-6-yl)-4-pyridyl]morpholine], for which, under setting [1], the IC50 turned out to be 13 nM. The same measure, in the same setting: the figure for `CC1c2cnc(-c3ncccn3)nc2CCN1c1cc(F)c(F)c(OCCCS(N)(=O)=O)c1` (stereo not shown) [Example 97, 3-[2,3-difluoro-5-(5-methyl-2-pyrimidin-2-yl-7,8-dihydro-5H-pyrido[4,3-d]pyrimidin-6-yl)phenoxy]propane-1-sulfonamide] is 154 nM. Take `CC1c2cnc(-c3ncccn3)nc2CCN1c1cc(F)c(F)c(OCC2CCOCC2)c1` (stereo not shown) [Example 89, 6-[3,4-difluoro-5-(tetrahydropyran-4-ylmethoxy)phenyl]-5-methyl-2-pyrimidin-2-yl-7,8-dihydro-5H-pyrido[4,3-d]pyrimidine]: the IC50 under setting [1] was determined as 21 nM.

Regarding `CC1c2cnc(-c3ncccn3)nc2CCN1c1cc(F)c(F)c(OCC2COC2)c1` (stereo not shown) [Example 76, 6-[3,4-difluoro-5-(oxetan-3-ylmethoxy)phenyl]-5-methyl-2-pyrimidin-2-yl-7,8-dihydro-5H-pyrido[4,3-d]pyrimidine], the IC50 under setting [1] was determined as 28 nM.

As to `CC1c2cnc(-c3ccccn3)nc2CCN1c1cc(OCCCCCC(=O)O)cc(F)n1` (stereo not shown) [Example 170, 6-[[2-fluoro-6-[5-methyl-2-(2-pyridyl)-7,8-dihydro-5H-pyrido[4,3-d]pyrimidin-6-yl]-4-pyridyl]oxy]hexanoic acid], the half-inhibitory concentration (IC50) under setting [1] was found to be 16 nM. For `CC1c2cnc(-c3ncccn3)nc2CCN1c1cc(F)c(F)c(OCCC(N)C(=O)O)c1` (stereo not shown) [Example 104, 2-amino-4-[2,3-difluoro-5-(5-methyl-2-pyrimidin-2-yl-7,8-dihydro-5H-pyrido[4,3-d]pyrimidin-6-yl)phenoxy]butanoic acid], the IC50 under setting [1] was determined as 19000 nM.

For `CCCC1c2cnc(-c3ccccn3)nc2CCN1c1cc(F)c(F)c(OC)c1` (single isomer, unassigned; (-)) [Example 14, (−)-6-(3,4-difluoro-5-methoxy-phenyl)-5-propyl-2-(2-pyridyl)-7,8-dihydro-5H-pyrido[4,3-d]pyrimidine], the IC50 (HepG2.2.15 cells) is 2970 nM. As to `COc1cc(F)nc(N2CCc3nc(-c4ncccn4)ncc3C2C)c1` (stereo not shown) [Example 127, 6-(6-Fluoro-4-methoxy-2-pyridyl)-5-methyl-2-pyrimidin-2-yl-7,8-dihydro-5H-pyrido[4,3-d]pyrimidine], the IC50 (HepG2.2.15 cells) turned out to be 24 nM. Regarding `CC1c2cnc(-c3ccccn3)nc2CCN1c1cc(OCC2CCOC2)cc(F)n1` (stereo not shown) [Example 188, 6-[6-fluoro-4-(tetrahydrofuran-3-ylmethoxy)-2-pyridyl]-5-methyl-2-(2-pyridyl)-7,8-dihydro-5H-pyrido[4,3-d]pyrimidine], the IC50 under setting [1] was determined as 29 nM.
